In one assay the test system is ABCD2. Kind of assay: Western blot of ABCD2 expression in ALD patient fibroblasts. Format: cell-based, human. As to conditions: especially at low concentration (5 μM), FIG. 6. Here is the method: The experiments described in Examples 4 and 6 were performed with metformin by the same lab and described by Singh et al. in Journal of Neurochemistry, 2016; 138, 86-100.
Background: Immunoblotting shows a protein as a band on a membrane.

Assay [1] has as its system ALD patient-derived lymphocytes. Put plainly: Hexacosanoic acid (VLCFA) level in ALD patient-derived lymphocytes. Format: cell-based, human. Here is the method: After studies on cells from patients with the […] of ALD (AMN) the inventors replicated the same study method as in example 1 to analyze the effect of PXL770 on cells from X-ALD patients (severe inflammatory phenotype).
The experiments described in Examples 3 and 7 were performed with metformin by the same lab and described by Singh et al. in Journal of Neurochemistry, 2016; 138, 86-100.

Assay [2] has as its system AMN human patient-derived primary lymphocytes. Kind of assay: Hexacosanoic acid (VLCFA) level in AMN patient-derived lymphocytes, LC-MS. Format: cell-based. Here is the method:
In order to show the efficacy of PXL770 to lower very long chain fatty acids (VLCFA) in vitro, the study focuses on the level assessment of the hexacosanoic acid, which is the most prevalent VLCFA, in healthy control cells and in AMN human patient-derived primary lymphocytes. The cell lines were obtained from Coriell Cell Repositories. Lymphocytes were cultured in RPMI-1640 with 10% fetal bovine serum (FBS). The cultures were split in 1:5 ratio. Lymphocytes from healthy patients were used as control. All treatments were in complete media containing fetal bovine serum (FBS, 15%). All cultured cells were maintained at 37° C. in 5% CO2.
VLCFA content was then measured as follows. Samples are adjusted to a final volume of 0.5-1 ml with LC-MS grade water and spiked with 10 ng of Lignoceric acid-d4 as an internal standard. The sample is acidified to pH 3-4 with dilute hydrochloric acid and extracted with isooctane-ethyl acetate (9:1) three times with equal volume. The extract is dried under nitrogen and the residue is reconstituted in methanol-water-ammonium acetate (75:25:10 mM).
Total fatty acids: After preparing the samples with internal standard as described above for free fatty acids, aqueous sodium hydroxide is added to a final concentration of 1 M. The mixture is incubated at 37° C. in dark under nitrogen for 3 h. […]
LC-MS analysis of fatty acids: The reconstituted fatty acid extracts are subjected to HPLC on Targa C8 column (2×10 mm) using methanol-aqueous ammonium acetate (10 mM) solvent mixture. […] The column eluent is directly introduced to mass analyzer (QTRAP5500) and monitored for fatty acids using published pseudo MRM method. […] Each fatty acid is quantitated against the added internal standard.
First, the evolution of hexacosanoic acid in lymphocytes is monitored in healthy control cells and in AMN human patient-derived primary lymphocytes; and in a second time a treatment of PXL770 was assigned to AMN human-derived primary lymphocytes in culture at different concentrations (5 μM, 10 μM, 25 μM, 50 μM) for one week and the level of hexacosanoic acid was measured. […]

The test system of assay [3] is ALD-KO mouse-mixed glial cells. Put plainly: Hexacosanoic acid (VLCFA) level in ALD-KO mouse mixed glial cells. Format: cell-based. Conditions: 25 μM, FIG. 3. Here is the method:
The inventors carried out a study of the measurement of VLCFA accumulation in AMN mouse-mixed glial cells when they are not undergoing any treatment and when they are treated with PXL770 at different doses.
C57BL6 mouse breeding pairs were purchased from Jackson Laboratory (Bar Harbor, ME) and maintained at the Henry Ford Health System (HFHS) animal facility. All animal procedures were approved by the HFHS Animal Review Committee and all animals received humane care in compliance with the HFHS experimental guidelines and the National Research Council's criteria for humane care (Guide for Care and Use of Laboratory Animals). Mouse with Abcd1 gene knocked-out were raised and used to extract mixed glial cells. Primary astrocyte-enriched cultures were prepared from the whole cortex of 1-day-old C57BL/6 mice. Briefly, the cortex was rapidly dissected in ice-cold calcium/magnesium-free HBSS at pH 7.4 as described previously. The tissue was minced, incubated in HBSS containing trypsin (2 mg/ml) for 20 min, and washed twice in plating medium containing 10% FBS and 10 μg/ml gentamicin and then disrupted by triturating through a Pasteur pipette, after which cells were seeded in 75-cm^2 culture flasks (Falcon, Franklin, NJ). […]
Hexacosanoic acid level in six groups of mixed glial cells was measured. […]

For the next assay, the system named is ABCD1-KO mice. Kind of assay: In vivo X-ALD mouse, 90 days: VLCFA (C26:0) in spinal cord. Conditions: male ABCD1-KO mice, 75 mg/kg oral gavage twice a day, FIG. 13. The procedure:
Male ABCD1-KO mice (n=8) were treated with oral gavage of PXL770 (75 mg/kg) twice a day, every day for 90 days. Untreated ABCD1-KO mice (n=8) and wild-type (WT) mice (n=8) served as controls. Post-treatment mice were sacrificed and spinal cord was collected for VLCFA analysis. The analysis was performed according to the standardized protocols of the Lipidomics Core Facility and data are expressed as VLCFA μg/ml levels. Hexacosanoic acid (C26:0) was selected as representative for VLCFAs.

The mark [4] stands for this setting: ALD lymphocytes, increasing concentrations, FIG. 5.

With `O=c1[nH]c2sc(Cl)c(-c3ccc4c(c3O)CCCC4)c2c([O-])c1-c1ccccc1.[K+]` [PXL770, monohydrate potassium salt of 2-chloro-4-hydroxy-3-(5-hydroxytetralin-6-yl)-5-phenyl-7H-thieno[2,3-b]pyridin-6-one], the “expression of ABCD2 (Western blot)” value in the assay on ABCD2 is “overexpression”. For the same molecule, the “level of hexacosanoic acid” value is reported as “decreases” in assay [1] (setting [4]) and “strongly decreases” in assay [2] (AMN lymphocytes, all doses tested (5, 10, 25, 50 μM), one week, FIG. 1). Further, the “level of hexacosanoic acid compared to healthy controls” value is recorded as “same level as that present in lymphocytes of healthy controls” in assay [1] (setting [4]); “same level as that present in lymphocytes of healthy controls” in assay [2] (AMN lymphocytes, doses of 5 and 50 μM, one week, FIG. 1). Besides, the “VLCFA content, normalization” value was “normalization effect” in assay [1] (ALD patient cells, 5 μM) and “normalization effect” in assay [2] (AMN patient cells, 5 μM). Further, the “accumulation of hexacosanoic acid” value in assay [3] is recorded as “decreases”. Moreover, in the assay with ABCD1-KO mice, the “VLCFA accumulation in the spinal cord” value is recorded as “significantly reduces”.
